Experimental data reported in publication PMC3068151 (PLoS ONE, 2011).

Columns and labels:
PC3 cells [1] = experiment: PC3 cell binding / adhesion assay (MTT readout); format: cell-based, human
Method: 96 well ELISA high binding plates were incubated overnight at 4°C with ephrinA1-Fc 1 µg/cm^2, 100 µl per well. The plates were washed three times with PBS and blocked for 1 hour with BSA 1%. Cells were treated with proper concentration of substance or DMSO 0.5% for 30 minutes in vials on a shaker. After that, plates were washed with PBS and incubated with 100 µl 5×10^5 cells/ml for 1 hour at 37°C. Finally, plates were washed with PBS and adhering cells were quantified using MTT colorimetric assay.
96-wells plates for cell culture were untretaed (A) or coated with 1 µg/cm^2 ephrinA1-Fc (B) overnight. PC3 cells were treated with the indicated compounds for 30 minutes in a tube and let to adhere for 60 minutes on the wells. Cell adhesion is reported normalizing adhesion of Fc to 100%. […] Data are the means of at least three independent experiment ± st. err. One-way ANOVA followed by Dunnet's post test was performed comparing Fc to all other column. No significant differences were detected for data in graph A. *, p<0.05, **,p<0.01.

EphB4 = biological target: T1, EphB4 (Homo sapiens, UniProt P54760); experiment: Phosphorylated-EphB4 sandwich ELISA in T47D cell lysates; format: cell-based; details: T47D cells, 3 µg/ml ephrinB2-Fc preclustered with 0.3 µg/ml IgG Fc fragment; read-out: IC50 EphB4 phosphorylation
T1 construct: EphB4 phosphorylation on T47D breast cancer cells; endogenous in cells; host or cells: T47D
T1 sequence (P54760 16-987): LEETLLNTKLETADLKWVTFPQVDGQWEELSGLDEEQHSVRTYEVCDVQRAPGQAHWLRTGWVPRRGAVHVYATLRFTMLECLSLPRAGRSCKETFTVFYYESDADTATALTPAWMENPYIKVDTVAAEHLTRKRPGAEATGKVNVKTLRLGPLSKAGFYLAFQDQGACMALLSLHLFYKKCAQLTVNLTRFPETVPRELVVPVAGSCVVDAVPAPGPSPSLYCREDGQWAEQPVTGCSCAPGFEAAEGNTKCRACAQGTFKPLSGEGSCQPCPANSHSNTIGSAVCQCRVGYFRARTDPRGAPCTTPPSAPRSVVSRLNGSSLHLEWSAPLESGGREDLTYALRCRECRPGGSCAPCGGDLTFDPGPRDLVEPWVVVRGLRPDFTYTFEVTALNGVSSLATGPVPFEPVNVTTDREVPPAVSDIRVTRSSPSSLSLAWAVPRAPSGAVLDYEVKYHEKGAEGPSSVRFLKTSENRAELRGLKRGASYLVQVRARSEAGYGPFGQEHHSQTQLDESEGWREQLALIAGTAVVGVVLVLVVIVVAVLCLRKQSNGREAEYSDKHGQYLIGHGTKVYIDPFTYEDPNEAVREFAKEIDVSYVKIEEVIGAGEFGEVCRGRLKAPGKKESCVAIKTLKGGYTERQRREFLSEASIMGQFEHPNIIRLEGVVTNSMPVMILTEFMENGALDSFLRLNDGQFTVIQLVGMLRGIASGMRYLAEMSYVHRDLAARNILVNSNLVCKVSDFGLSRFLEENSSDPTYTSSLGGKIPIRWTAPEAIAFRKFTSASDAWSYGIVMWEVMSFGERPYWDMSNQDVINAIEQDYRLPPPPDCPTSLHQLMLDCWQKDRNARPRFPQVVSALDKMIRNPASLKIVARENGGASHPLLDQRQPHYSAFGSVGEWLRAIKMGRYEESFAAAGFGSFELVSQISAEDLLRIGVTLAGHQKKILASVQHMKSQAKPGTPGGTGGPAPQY
Method: (§1) Cells were seeded in 12-well plates at concentration of 10^5cells/ml in complete medium until they reached ∼40% confluence and serum starved overnight. The day after cells were treated with compounds under study, vehicle or standard drug, stimulated with the proper agonist, rinsed with sterile PBS and solubilized in lysis buffer. The lysates were resuspended and rocked at 4°C for 30 minutes and then centrifuged at 14000 xg for 5 minutes. The protein content of supernatant was measured with BCA protein assay kit (Thermo scientific), standardized to 200 µg/ml and transferred into a clean test tube ready to be used.
(§2) EphA2-, EphB4- and EGFR-phosphorylation were measured in cell lysates using DuoSet®IC Sandwich ELISA (RnD Systems, #DYC4056, #DYC4057 and #DYC1095, respectively) following manufacturer's protocol. […] The day after wells were washed and blocked for 1 hour at room temperature. After that, wells were washed and 100 µl/well of lysates were added at room temperature for 2 hours; wells were washed and incubated with Detection Antibody at room temperature for 2 hours.
EphB4 phosphorylation was stimulated with 3 µg/ml ephrinB2-Fc, preclustered with 0.3 µg/ml IgG Fc fragment on T47D cells (G, H, I). […] Phospho-EphA2/B4 levels are relative to ephrinA1/B2-Fc+DMSO. Data are the means of at least three independent experiment ± st. err. […]

EGFR = EGFR (Homo sapiens, UniProt P00533); experiment: Phosphorylated-EGFR sandwich ELISA in HT29 cells; format: cell-based; details: 100 µM, 10 ng/ml EGF
EGFR, sequence (P00533 25-1210): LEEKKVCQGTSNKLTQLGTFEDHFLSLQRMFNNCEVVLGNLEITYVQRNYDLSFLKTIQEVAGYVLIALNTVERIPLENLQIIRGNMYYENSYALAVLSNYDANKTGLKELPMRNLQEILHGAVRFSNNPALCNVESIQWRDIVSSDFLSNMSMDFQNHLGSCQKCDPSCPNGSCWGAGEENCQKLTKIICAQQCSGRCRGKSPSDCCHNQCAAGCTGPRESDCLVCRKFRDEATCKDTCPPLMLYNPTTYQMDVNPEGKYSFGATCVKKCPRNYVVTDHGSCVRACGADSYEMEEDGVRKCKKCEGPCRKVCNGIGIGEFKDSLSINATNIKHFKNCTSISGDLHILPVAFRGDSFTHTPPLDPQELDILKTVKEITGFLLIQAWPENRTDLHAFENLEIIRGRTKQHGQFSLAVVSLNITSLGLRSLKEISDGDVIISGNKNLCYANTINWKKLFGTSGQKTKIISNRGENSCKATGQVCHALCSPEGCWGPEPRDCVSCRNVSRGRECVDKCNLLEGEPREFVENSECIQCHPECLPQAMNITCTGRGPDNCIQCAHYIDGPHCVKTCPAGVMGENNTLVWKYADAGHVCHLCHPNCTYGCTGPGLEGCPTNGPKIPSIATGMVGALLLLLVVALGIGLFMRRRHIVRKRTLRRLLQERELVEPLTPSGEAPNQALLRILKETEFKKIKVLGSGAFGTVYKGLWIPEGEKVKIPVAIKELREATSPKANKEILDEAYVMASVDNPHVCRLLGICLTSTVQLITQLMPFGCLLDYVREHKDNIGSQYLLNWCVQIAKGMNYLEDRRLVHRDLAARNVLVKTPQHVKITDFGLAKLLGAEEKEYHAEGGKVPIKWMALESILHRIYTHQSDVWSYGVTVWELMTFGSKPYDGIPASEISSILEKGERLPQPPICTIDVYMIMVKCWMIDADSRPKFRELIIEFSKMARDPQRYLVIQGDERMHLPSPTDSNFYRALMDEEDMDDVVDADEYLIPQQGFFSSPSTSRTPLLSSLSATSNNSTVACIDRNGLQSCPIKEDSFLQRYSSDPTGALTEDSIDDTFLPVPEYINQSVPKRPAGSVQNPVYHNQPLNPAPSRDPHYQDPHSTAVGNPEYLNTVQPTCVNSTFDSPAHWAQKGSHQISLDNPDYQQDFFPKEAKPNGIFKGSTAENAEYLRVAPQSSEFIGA
Method: as §1, §2
A, B) EGFR phosphorylation was induced by 30 ng/ml and 10 ng/ml EGF on PC3 (A) and HT29 (B) cells, respectively. […] Data are the means of two experiments ± st. err.

PC3 cells [2] = experiment: PC3 cell rounding assay; format: cell-based, human; details: for inhibition of ephrinA1-Fc induced PC3 cell rounding: 0.5 µg/ml ephrinA1-Fc, 30 minutes
Method: PC3 cells were grown on 12-well culture plates and starved overnight in Ham-F12 medium with 0.5% FBS. DMSO (final concentration 0.25%) or compounds were incubated for 20 min, before stimulation with 0.5 µg/ml ephrinA1-Fc or Fc for 30 minutes. During this time cells were observed and pictures were taken from the same field, before and after incubation, under a microscope (Leica, DM IL). Cell rounding was evaluated using ImageJ program.
Cell images were collected from the same field at time 0 and 30 minutes using a digital camera mounted on a Leica DM IL microscope. […] Cells, which rounded their shape and having an area less than 20% of the initial value, were scored as retracting. Data are the means of at least three independent experiments ± st. err. One-way ANOVA followed by Dunnet's post test was performed comparing ephrinA1-Fc+DMSO to all other columns. *, p<0.05, **,p<0.01.

EphA2-ephrinA1 binding = biological target: T2, EphA2-ephrinA1 binding (Mus musculus, UniProt Q03145); experiment: ELISA EphA2-ephrinA1 binding (displacement and saturation); details: 200 µM for 1 hour, some wells washed before adding 50 ng/ml ephrinA1-Fc
T2 construct: we immobilized EphA2-Fc- ectodomain on proper ELISA plates; purchased R&D systems 639-A2 (EphA2-Fc); BT602 (biotinylated ephrinA1-Fc)
T2 sequence (Q03145 26-538 limits assumed): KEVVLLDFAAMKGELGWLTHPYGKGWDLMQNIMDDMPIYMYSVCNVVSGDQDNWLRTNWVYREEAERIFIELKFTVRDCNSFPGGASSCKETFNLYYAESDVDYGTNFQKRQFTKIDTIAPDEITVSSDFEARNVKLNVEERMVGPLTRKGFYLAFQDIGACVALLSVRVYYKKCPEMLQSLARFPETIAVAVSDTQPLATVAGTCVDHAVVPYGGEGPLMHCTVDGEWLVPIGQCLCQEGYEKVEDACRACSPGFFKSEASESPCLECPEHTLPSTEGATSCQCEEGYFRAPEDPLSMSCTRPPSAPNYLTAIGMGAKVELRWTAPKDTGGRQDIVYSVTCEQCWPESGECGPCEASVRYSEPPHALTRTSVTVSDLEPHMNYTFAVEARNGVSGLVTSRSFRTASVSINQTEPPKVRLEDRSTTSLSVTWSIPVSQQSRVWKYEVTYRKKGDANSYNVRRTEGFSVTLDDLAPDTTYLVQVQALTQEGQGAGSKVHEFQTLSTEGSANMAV

## C[C@H](CCC(=O)O)[C@H]1CC[C@H]2[C@@H]3CC[C@@H]4C[C@H](O)CC[C@]4(C)[C@H]3CC[C@]12C [LCA, lithocholic acid]
PC3 cells [1]; ephrinA1-Fc coated plates, increasing concentrations
  PC3 adhesion to ephrinA1-Fc: dose-dependently inhibited
PC3 cells [1]; uncoated standard cell culture plates
  aspecific PC3 cell adhesion: neither ephrinA1-Fc nor LCA inhibited
EphB4
  IC50: 141 µM
EGFR
  effect on EGF-induced EGFR phosphorylation: completely inactive
PC3 cells [2]; 10 µM
  inhibition of ephrinA1-Fc induced PC3 cell rounding: inactive
PC3 cells [2]; 100 µM
  inhibition of ephrinA1-Fc induced PC3 cell rounding: blocked cell rounding
PC3 cells [2]; incubated with Fc for 30 minutes
  changes in PC3 cell morphology by compound alone: Neither DMSO 0.25% nor LCA alone induced changes in cell morphology
EphA2-ephrinA1 binding
  reversibility of binding (displacement with or without washing): The displacement was detected only where the washing was not performed
